The values below come from BindingDB's records for patent US20240239813 (Risen (Suzhou) Pharma Tech Co., 2024).

Chain of GTPase KRas [G12D] (P01116 whole entry G12D): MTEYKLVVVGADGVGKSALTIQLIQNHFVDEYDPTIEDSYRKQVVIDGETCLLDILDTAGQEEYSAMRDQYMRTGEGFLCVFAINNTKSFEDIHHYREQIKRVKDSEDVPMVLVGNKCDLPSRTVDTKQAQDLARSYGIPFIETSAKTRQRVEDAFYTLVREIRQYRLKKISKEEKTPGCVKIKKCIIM

For this test, the target named is GTPase KRas [G12D] (Homo sapiens, UniProt P01116, G12D). Description: KRAS Binding Assay. How it is done:
The ability of a test compound to bind to KRASG12D was measured by using an HTRF KRASG12D GTP Binding Kit (Cisbio, 63ADK000CB27PEG). […] 5 μL of compound solution was added to each well after serial dilution, followed by addition of 5 μL of GDP (50 nM) solution. After 30 minutes incubation at room temperature, 1×6His Eu cryptate antibody solution and GTP-Red tracer were added to the plate, then incubated for another 30 minutes. The HTRF signal was measured with a VICTOR Nivo multimode plate reader according to the manufacturer's instructions.
As to `CCc1c(F)ccc2cc(O)cc(-c3ncc4c(N5CCC(O)(CO)CC5)nc(OC[C@@]56CCCN5C[C@H](F)C6)nc4c3F)c12` [US20240239813, Compound 41], the IC50 (commonly the concentration that gives 50% inhibition) is above 1 µM. For the compound `Oc1cc(-c2ncc3c(N4CCCC5(CCO5)C4)nc(OC[C@@]45CCCN4C[C@H](F)C5)nc3c2F)c2ccccc2c1` (some centres undefined) [US20240239813, Compound 8a], the IC50 is above 1 µM.

Consider `CCc1c(F)ccc2cc(OC(=O)N(C)C)cc(-c3ncc4c(N5CCC[C@]6(CCO6)C5)nc(OCC5(CN(C)C)CC5)nc4c3F)c12` [US20240239813, Compound 24a], for which the IC50 was above 1 µM. Compound `CCc1c(F)ccc2cc(OC(=O)C(C)C)cc(-c3ncc4c(N5CCC[C@]6(CCO6)C5)nc(OCC5(CN(C)C)CC5)nc4c3F)c12` [US20240239813, Compound 22a] gave an IC50 above 1 µM. As for `CN(C)CC1(COc2nc(N3CCC[C@]4(CCO4)C3)c3cnc(-c4cc(N)ccc4-c4cccs4)c(F)c3n2)CC1` [US20240239813, Compound 17a], the IC50 was above 1 µM. Take `Cc1ccc2[nH]ncc2c1-c1ncc2c(N3CCCC4(CCO4)C3)nc(OC[C@@]34CCCN3C[C@H](F)C4)nc2c1F` (some centres undefined) [US20240239813, Compound 71]: the half-inhibitory concentration (IC50) is above 1 µM. `CCc1c(F)ccc2cc(O)cc(-c3ncc4c(N5[C@@H]6CC[C@H]5C[C@@H](O)C6)nc(OC[C@@]56CCCN5C[C@H](F)C6)nc4c3F)c12` [US20240239813, Compound 10]: the IC50 came to 0.881 µM. Then `CCc1c(F)ccc2cc(O)cc(-c3ncc4c(N5[C@@H]6CC[C@H]5C[C@H](O)C6)nc(OC[C@@]56CCCN5C[C@H](F)C6)nc4c3F)c12` [US20240239813, Compound 11], with above 1 µM; and `CCc1c(F)ccc2cc(O)cc(-c3ncc4c(N5C[C@H](O)[C@@H](O)[C@H](O)[C@H]5CO)nc(OC[C@@]56CCCN5C[C@H](F)C6)nc4c3F)c12` [US20240239813, Compound 51], with above 1 µM.
